In patent US5409933A, “Quinoline derivatives and processes for preparing the same” (priority 1993, dated 1995):
Counter-ions that a name gives are not always drawn. Like-named read-outs stand apart in the source and are kept apart here.

How the values were obtained:
Experiment in all cases: In Vitro Anti-Bacterial Activity Test (MIC, agar dilution)
Assay type in all cases: cell-based
Escherichia coli 1507E = details: Escherichia coli, 1507E, 18 h, Muller-Hinton agar, 37° C.
Procedure: (§1) The above in vitro antibacterial activity test was carried out in accordance with the agar culture medium dilution method (Hoechst 345) by using Muller-Hinton agar medium to determine the minimum inhibitory concentration (MIC).
(§2) The strains having 10^7 C.F.U./ml were inoculated on the culture medium, and the growth of the strains was observed after incubating them at 37° C. for 18 hours, in which ciprofloxacin was used as a control antibacterial agent. In this test, twenty typical strains were used.

Escherichia coli TEM = details: Escherichia coli, 18 h, Muller-Hinton agar, 37° C.
Procedure: as §1, §2

Salmonella typhimurium = details: Salmonella enterica; Salmonella typhimurium; Muller-Hinton agar, 37° C., 18 hours; read-out: MIC
Procedure: as §1, §2

Klebsiella oxytoca 1082E = details: Klebsiella oxytoca 1082E; Muller-Hinton agar, 37° C., 18 hours; read-out: MIC
Procedure: as §1, §2

[1] = test system: Pseudomonas aeruginosa 9027; details: Muller-Hinton agar, 37° C., 18 hours, read-out: MIC
Procedure: as §1, §2

[2] = test system: Staphylococcus aureus 503; details: Staphylococcus aureus 503; Muller-Hinton agar, 37° C., 18 hours; read-out: MIC
Procedure: as §1, §2

[3] = test system: Klebsiella aerogenes 1522E; details: Klebsiella aerogenes, 1522E, 18 h
Procedure: as §1, §2

[4] = test system: Staphylococcus aureus 285; details: Staphylococcus aureus, 285, 18 h, Staphylococcus aureus 285; Muller-Hinton agar, 37° C., 18 hours; read-out: MIC
Procedure: as §1, §2

Enterobacter cloacae P99 = details: Enterobacter cloacae, P99, 18 h
Procedure: as §1, §2

[5] = test system: Enterobacter cloacae 1321E; details: Enterobacter cloacae 1321E; Muller-Hinton agar, 37° C., 18 hours; read-out: MIC
Procedure: as §1, §2

[6] = test system: Pseudomonas aeruginosa 1771M; details: Pseudomonas aeruginosa, 1771M, 18 h, Muller-Hinton agar, 37° C.
Procedure: as §1, §2

[7] = test system: Pseudomonas aeruginosa 1771; details: Pseudomonas aeruginosa 1771; Muller-Hinton agar, 37° C., 18 hours; read-out: MIC
Procedure: as §1, §2

[8] = test system: Streptococcus pyogenes 308A; details: Muller-Hinton agar, 37° C., 18 hours, read-out: MIC
Procedure: as §1, §2

Escherichia coli DC0 = details: Muller-Hinton agar, 37° C., 18 hours, read-out: MIC
Procedure: as §1, §2

Escherichia coli 078 = test system: Escherichia coli 078
Procedure: as §1, §2

Escherichia coli DC2 = test system: Escherichia coli DC2
Procedure: as §1, §2

[9] = test system: Pseudomonas aeruginosa 1592E; details: Muller-Hinton agar, 37° C., 18 hours, read-out: MIC
Procedure: as §1, §2

[10] = test system: Streptococcus faecium MD8b; details: Enterococcus faecium, Muller-Hinton agar, 37° C., 18 hours, read-out: MIC
Procedure: as §1, §2

[11] = test system: Streptococcus pyogenes 77A; details: Streptococcus pyogenes 77A; Muller-Hinton agar, 37° C., 18 hours; read-out: MIC
Procedure: as §1, §2

[12] = test system: Staphylococcus aureus SG511; details: Staphylococcus aureus SG511; Muller-Hinton agar, 37° C., 18 hours; read-out: MIC
Procedure: as §1, §2

[13] = Escherichia coli DC2, Muller-Hinton agar, 37° C., 18 hours, read-out: MIC
[14] = Klebsiella aerogenes 1522E, Muller-Hinton agar, 37° C., 18 hours, read-out: MIC

| Structure (SMILES) | MIC (Escherichia coli 1507E) [µg/mL] | MIC (Escherichia coli TEM) [µg/mL] | MIC (Salmonella typhimurium) [µg/mL] | MIC (Klebsiella oxytoca 1082E) [µg/mL] | MIC [1] [µg/mL] | MIC [2] [µg/mL] | MIC [3] [µg/mL] | MIC [4] [µg/mL] | MIC (Enterobacter cloacae P99) [µg/mL] | MIC [5] [µg/mL] | MIC [6] [µg/mL] | MIC [7] [µg/mL] | MIC [8] [µg/mL] | MIC (Escherichia coli DC0) [µg/mL] | MIC (Escherichia coli 078; Escherichia coli, 078, 18 h) [µg/mL] | MIC (Escherichia coli DC2; [13]) [µg/mL] | MIC [9] [µg/mL] | MIC [10] [µg/mL] | MIC [11] [µg/mL] | MIC [12] [µg/mL] | also measured |
| --- | --- | --- | --- | --- | --- | --- | --- | --- | --- | --- | --- | --- | --- | --- | --- | --- | --- | --- | --- | --- | --- |
| CCOC(=O)C(C#N)C(=O)c1cn(C2CC2)c2c(Cl)c(N3CC=C(CNC)C3)c(F)cc2c1=O (centres unmarked) [Example 40, 1-cyclopropyl-6-fluoro-8-chloro-7-(3-methylaminomethyl-2,5-dihydropyrrol-1-yl)-3-(2-cyano-2-ethoxycarbonylacetyl)-1,4-dihydro-4-oxoquinoline hydrochloride] | 0.781 | 0.391 | 0.195 | 0.049 | 12.5 | 1.56 | 0.391 | 3.12 | 0.391 | 0.049 | 3.12 | 6.25 | 25 | 6.25 | 0.098 | 3.12 | 6.25 | 12.5 | 12.5 | 1.56 | – |
| N#CCC(=O)c1cn(C2CC2)c2c(Cl)c(N3CCC(N)C3)c(F)cc2c1=O (centres unmarked) [Example 42, 1-cyclopropyl-6-fluoro-8-chloro-7-(3-aminopyrrolidin-1-yl)-3-(2-cyanoacetyl)-1,4-dihydro-4-oxoquinoline hydrochloride] | 0.195 | 0.781 | 1.56 | 0.098 | 2.5 | 3.12 | – | 3.12 | 0.781 | 0.098 | 6.25 | 6.25 | 25 | 12.5 | 0.098 | 3.12 | 12.5 | 12.5 | 12.5 | 6.25 | MIC [3, 14]: 1.56 µg/mL |
| N#CCC(=O)c1cn(C2CC2)c2c(Cl)c(N3CC4=C(CNC4)C3)c(F)cc2c1=O [Example 44, 1-cyclopropyl-6-fluoro-8-chloro-7-(3,7-diazabicyclo[3.3.0]oct-1,5-en-3-yl)-3-(2-cyanoacetyl)-1,4-dihydro-4-oxoquinoline hydrochloride] | 0.781 | 0.391 | 0.195 | 0.195 | 12.5 | 6.25 | 0.391 | 6.25 | 0.195 | 0.098 | 3.12 | 12.5 | 25 | 3.12 | 0.195 | – | 6.25 | 25 | 25 | 6.25 | MIC (Escherichia coli DC2; Escherichia coli, DC2, 18 h): 1.56 µg/mL |
| NCC1CCN(c2c(F)cc3c(=O)c(C(=O)C[N+](=O)[O-])cn(C4CC4)c3c2Cl)C1 (centres unmarked) [Example 53, 1-cyclopropyl-6-fluoro-8-chloro-7-(3-aminomethylpyrrolidin-1-yl)-3-(2-nitroacetyl)-1,4-dihydro-4-oxoquinoline hydrochloride] | 0.025 | 0.013 | 0.013 | < 0.002 | 0.781 | 0.013 | – | 0.007 | 0.013 | < 0.002 | 0.195 | 0.781 | 0.098 | 0.195 | – | – | 0.391 | 0.049 | 0.049 | 0.013 | MIC [3, 14]: 0.013 µg/mL; MIC (Escherichia coli 078; Escherichia coli 078, Muller-Hinton agar, 37° C., 18 hours, read-out: MIC): < 0.002 µg/mL; MIC (Escherichia coli DC2; Escherichia coli, DC2, 18 h): 0.049 µg/mL |
